Results from patent US8163528B2, “Nucleic acid molecules encoding thymidine kinase fusion proteins” (Darwin Molecular Corporation, priority 1997, dated 2012).

Tests used:
[1] = Time course analysis of mutant enzymes (thymidine phosphorylation); assay type: biochemical; conditions: 30° C., 0-30 minutes; adjusted to protein synthesis
Description: For the high-activity mutant enzymes, unlabeled translation products were diluted 1/9 and incubated for 0, 5, 10, 20, or 30 minutes at 30° C.
The low-activity mutants were diluted 1/5, and the rate of phosphorylation as a function of time was also determined.

[2] = test system: KY895; test: Secondary screen: colony formation on acyclovir, AZT, TK selection and LB plates; assay type: cell-based, E. coli; set-up: key: ++: the same number of colonies were observed as compared to control plates; +: fewer (<20% those observed with pMCC) and generally smaller (˜50% smaller diameter) colonies were observed as compared to control plates; −: no colonies were observed; conditions: for colonies on AZT plates: 1 μg/mL thymidine+0.05 μg/mL AZT; for colonies on AZT plates / colonies on ACV plates / colonies on TK selection plates, 37° C.: 37° C.; for colonies on ACV plates: 1 μg/mL thymidine+1 μg/mL acyclovir; for colonies on LB plates: LB+carb50 plates
Description: Mutant cultures were also spread onto duplicate TK selection and LB+carb50 plates. One set of TK selection plates and LB+carb50 plates were incubated at 42° C. All other plates were incubated at 37° C. After 16-24 hours the plates were scored.

[3] = Substrate specificity assay of cell-free translation products, deoxycytidine; assay type: biochemical
Description: (§1) No significant difference in phosphorylation efficiency was observed between pT7:MCC and pT7:HSVTKII when thymidine (1.3-fold), deoxycytidine (1.3-fold), GCV (0.8-fold), ACV (0.95-fold), or AZT (1.1-fold) were used as substrate. Furthermore, Sanderson et al. (J. Mol. Biol. 202:917-919, 1988) reported that the Km for thymidine and ATP and the Vmax of TK purified from E. coli harboring pHETK2 (the parent plasmid of pMCC) and HSV-1-infected cells were indistinguishable. Therefore, the alterations observed in the properties of the mutant TKs can be attributed to the nucleotide substitutions within the target region and that any differences between the vectors (pT7:MCC and pT7:HSVTKII) exerted only minor changes in catalytic properties.
(§2) Three of the mutants (P155A/F161V, F161I and F161C) were assayed in triplicate for the relative levels of phosphorylation using thymidine, deoxycytidine, ACV, GCV, or AZT as substrates. Briefly, forty-eight […] of each tritiated substrate was used in each assay reaction. Translation products were diluted for each nucleoside assay as follows (translation/H2O): 1/100, thymidine; 2/3, deoxycytidine, GCV, and AZT; 4/1, ACV. Each set of assays was incubated for 2 hours at 30° C. and the amount of phosphorylated product determined.

[4] = Substrate specificity assay of cell-free translation products, ACV; assay type: biochemical
Description: as §1, §2

[5] = assay type: biochemical; conditions: for thermal stability after 42° C. preincubation compared to HSVTKII: cell-free translation products
Description: To substantiate this observation, cell-free translation products were incubated at 42° C. for increasing times prior to being assayed for enzyme activity. Briefly, cell free translation (“CFT”) products of each high-activity mutant, -RNA, and HSVTKII samples were diluted 1/9 and incubated for 0, 5, 10, and 20 minutes at 42° C. The preincubated samples were then assayed for 5 minutes (P155A/F161V and F1611) or 20 minutes (-RNA, HSVTKII, F161C, and D162E). The percent of activity remaining was determined with the untreated samples set at 100%. […] Because F161C lost greater than 90% of enzyme activity within the first 20 minutes at 42° C., shorter incubation periods at 42° C. were performed […].
Low-activity mutant CFT products were diluted 1/5 and incubated for 0, 20, 40, or 60 minutes at 42° C. The preincubated samples were then assayed in triplicate for the thymidine phosphorylation for 60 minutes. The percent of activity remaining was determined using the untreated (time 0) sample as 100%.

[6] = Substrate specificity assay of cell-free translation products, thymidine; assay type: biochemical
Description: as §1, §2

[7] = test system: BHK tk; test: Sensitivity of guanylate kinase transfectant pools to ACV in TK expressing clones; assay type: cell-based, hamster; conditions: guanylate kinase expression in the presence of wild-type TK
Description: pREP8-7, pREP8-7:hgmk and pREP8-7:mgmk are used to transfect BHK tk, TK-transfected clone C3 and 75-transfected clone D4. Histidinol is used to select pools of stable transfectants and to isolate individual clones.
As in Example 8, pools of transfectants are placed in 96 well microtiter dishes at 1000 cells/well. Eight replicates are incubated for three days in the presence of various GCV or ACV concentrations.

[8] = Kinetic analysis of fusion proteins, GMP; assay type: biochemical; conditions: purified protein

Substance | TK activity in time course analysis compared to wild-type [1] | colonies on AZT plates [2] | colonies on ACV plates [2] | colonies on TK selection plates, 37° C. [2] | colonies on TK selection plates, 42° C. [2] | colonies on LB plates [2] | phosphorylation of deoxycytidine over the wild-type enzyme [3] | ACV phosphorylation over HSVTKII [4] | activity loss after 5 minutes at 42° C. ([5]; cell-free translation product) | enzyme activity lost within the first 20 minutes at 42° C. ([5]; cell-free translation product) | phosphorylation of thymidine relative to HSVTKII [6] | thermal stability after 42° C. preincubation compared to HSVTKII [5] | increased sensitivity to ACV relative to TK expression alone [7] | Km [8]
D162E | no difference in activities when compared to the wild-type TK enzyme activities |  |  |  |  |  |  |  |  |  |  |  |  | 
F161C | no difference in activities when compared to the wild-type TK enzyme activities | − | + (fewer (<20% those observed with pMCC) and generally smaller (˜50% smaller diameter) colonies were observed as compared to control plates) | ++ | ++ | ++ | 2.8 fold | 2 fold | ~85% | greater than 90% |  |  |  | 
F161I | statistically higher affinity for thymidine than the wild-type TK | + (fewer (<20% those observed with pMCC) and generally smaller (˜50% smaller diameter) colonies were observed as compared to control plates) | + (fewer (<20% those observed with pMCC) and generally smaller (˜50% smaller diameter) colonies were observed as compared to control plates) | ++ | ++ | ++ | 1.9 fold |  |  |  | 2.2 fold |  |  | 
F161I/R163H |  | ++ | ++ | ++ | + (fewer (<20% those observed with pMCC) and generally smaller (˜50% smaller diameter) colonies were observed as compared to control plates) | ++ |  |  |  |  |  | equivalent to HSVTKII |  | 
F161L | moderate ability to phosphorylate thymidine, albeit at a much reduced rate from HSVTKII | ++ | ++ | ++ | − | ++ |  |  |  |  |  | more thermolabile that HSVTKII |  | 
Guanylate kinase: guanylate kinase expressed from pREP8-7 constructs in wild-type TK clone C3 (human or murine not stated) |  |  |  |  |  |  |  |  |  |  |  |  | approximately 2 fold | 
P155A/F161V: HSV-1 TK, proline to alanine mutation at position 155 and phenylalanine to valine at position 161 | statistically higher affinity for thymidine than the wild-type TK | + (fewer (<20% those observed with pMCC) and generally smaller (˜50% smaller diameter) colonies were observed as compared to control plates) | ++ | ++ | ++ | ++ | 2.8 fold | 2.4 fold |  |  | 2.6 fold |  |  | 
gmk: wild-type guanylate kinase (murine gmk used in the fusions) |  |  |  |  |  |  |  |  |  |  |  |  |  | 25 µM
